Measured values reported in patent US20210070748A1, “INHIBITORS OF BRUTONS TYROSINE KINASE” (Pharmacyclics LLC, priority 2015, published 2021).

Tests used:
Assay type in all cases: biochemical
[1] = target: T1, ITK (Homo sapiens, UniProt Q08881); assay: Inhibition of a panel of kinases, in vitro HotSpot kinase assay: ITK; conditions: D-compounds panel data; 1 μM ATP
T1 sequence (Q08881 1-620): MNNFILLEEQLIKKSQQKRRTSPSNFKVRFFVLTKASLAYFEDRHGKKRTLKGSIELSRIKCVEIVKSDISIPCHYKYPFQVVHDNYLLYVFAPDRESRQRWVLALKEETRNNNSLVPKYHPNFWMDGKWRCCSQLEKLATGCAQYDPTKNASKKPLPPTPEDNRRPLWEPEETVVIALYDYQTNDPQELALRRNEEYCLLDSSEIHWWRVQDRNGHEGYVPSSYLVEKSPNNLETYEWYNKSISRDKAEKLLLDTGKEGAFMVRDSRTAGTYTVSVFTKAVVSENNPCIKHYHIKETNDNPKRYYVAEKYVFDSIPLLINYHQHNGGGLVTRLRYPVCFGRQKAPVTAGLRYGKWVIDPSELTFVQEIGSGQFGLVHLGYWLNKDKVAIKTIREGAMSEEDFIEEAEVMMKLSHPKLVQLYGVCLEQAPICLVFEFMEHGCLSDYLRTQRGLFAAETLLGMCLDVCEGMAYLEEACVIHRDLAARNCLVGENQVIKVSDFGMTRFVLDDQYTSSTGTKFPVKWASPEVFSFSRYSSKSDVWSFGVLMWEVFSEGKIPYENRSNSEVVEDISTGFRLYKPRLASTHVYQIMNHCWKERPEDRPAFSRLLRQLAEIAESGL
Description: (§1) The degree of inhibition of a panel of kinases is determined using the in vitro HotSpot kinase assay (purified enzymes, ^33P-ATP, an appropriate substrate and 1 μM ATP).

[2] = target: LCK (Homo sapiens, UniProt P06239); assay: Inhibition of a panel of kinases, in vitro HotSpot kinase assay: LCK; conditions: D-compounds panel data; 1 μM ATP; read-out: IC50 LCK
LCK, sequence (P06239 whole entry): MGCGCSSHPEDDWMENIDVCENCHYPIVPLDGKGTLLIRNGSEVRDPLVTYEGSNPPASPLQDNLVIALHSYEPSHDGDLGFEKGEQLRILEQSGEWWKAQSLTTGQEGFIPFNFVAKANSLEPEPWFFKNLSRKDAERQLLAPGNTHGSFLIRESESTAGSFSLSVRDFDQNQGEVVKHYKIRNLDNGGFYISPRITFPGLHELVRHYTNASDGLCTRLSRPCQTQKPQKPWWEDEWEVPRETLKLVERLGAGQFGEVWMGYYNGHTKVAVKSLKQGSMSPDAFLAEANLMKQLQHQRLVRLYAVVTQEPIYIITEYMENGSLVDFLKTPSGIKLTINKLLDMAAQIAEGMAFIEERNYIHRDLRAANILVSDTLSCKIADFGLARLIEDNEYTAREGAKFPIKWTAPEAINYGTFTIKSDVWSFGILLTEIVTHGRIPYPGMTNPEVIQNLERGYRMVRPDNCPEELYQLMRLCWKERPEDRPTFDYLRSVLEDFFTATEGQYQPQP

[3] = target: T2, TEC (Homo sapiens, UniProt P42680); assay: Inhibition of a panel of kinases, in vitro HotSpot kinase assay: TEC; conditions: D-compounds panel data; 1 μM ATP
T2 sequence (P42680 1-631): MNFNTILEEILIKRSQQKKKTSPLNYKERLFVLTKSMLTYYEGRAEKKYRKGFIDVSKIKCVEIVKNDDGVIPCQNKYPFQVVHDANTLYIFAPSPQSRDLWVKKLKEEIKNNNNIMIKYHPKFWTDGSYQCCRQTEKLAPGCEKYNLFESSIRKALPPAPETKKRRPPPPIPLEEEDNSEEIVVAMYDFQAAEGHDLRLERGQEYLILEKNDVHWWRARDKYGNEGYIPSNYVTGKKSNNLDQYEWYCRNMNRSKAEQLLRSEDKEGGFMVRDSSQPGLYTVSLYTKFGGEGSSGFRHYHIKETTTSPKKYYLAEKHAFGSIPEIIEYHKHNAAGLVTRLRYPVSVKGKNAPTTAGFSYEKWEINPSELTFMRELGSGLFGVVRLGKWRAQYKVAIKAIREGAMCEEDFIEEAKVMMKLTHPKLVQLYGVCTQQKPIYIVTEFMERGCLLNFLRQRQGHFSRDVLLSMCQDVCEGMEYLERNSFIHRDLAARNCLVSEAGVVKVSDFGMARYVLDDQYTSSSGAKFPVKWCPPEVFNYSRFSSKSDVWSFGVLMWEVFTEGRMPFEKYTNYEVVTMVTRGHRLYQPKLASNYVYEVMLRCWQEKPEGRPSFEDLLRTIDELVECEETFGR
Description: as §1

[4] = target: SRC (Homo sapiens, UniProt P12931); assay: Inhibition of a panel of kinases, in vitro HotSpot kinase assay: SRC; conditions: D-compounds panel data; 1 μM ATP
SRC, sequence (P12931 whole entry): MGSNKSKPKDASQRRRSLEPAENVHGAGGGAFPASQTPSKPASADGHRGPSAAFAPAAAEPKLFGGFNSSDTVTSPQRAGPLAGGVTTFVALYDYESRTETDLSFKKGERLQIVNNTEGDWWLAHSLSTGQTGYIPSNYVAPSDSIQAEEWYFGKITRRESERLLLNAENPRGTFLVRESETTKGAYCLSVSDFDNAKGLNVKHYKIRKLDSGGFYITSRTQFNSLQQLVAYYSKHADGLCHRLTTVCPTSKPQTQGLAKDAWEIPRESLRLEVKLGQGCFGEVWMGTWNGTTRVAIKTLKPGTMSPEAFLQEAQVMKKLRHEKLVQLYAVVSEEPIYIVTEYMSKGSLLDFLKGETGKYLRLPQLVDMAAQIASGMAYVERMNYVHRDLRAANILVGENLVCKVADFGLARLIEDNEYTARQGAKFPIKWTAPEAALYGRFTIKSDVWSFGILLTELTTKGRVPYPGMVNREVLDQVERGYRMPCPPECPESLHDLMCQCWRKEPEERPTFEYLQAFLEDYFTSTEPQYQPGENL
Description: as §1

[5] = target: EGFR (Homo sapiens, UniProt P00533); assay: Inhibition of a panel of kinases, in vitro HotSpot kinase assay: EGFR; conditions: D-compounds panel data; 1 μM ATP
EGFR, sequence (P00533 25-1210): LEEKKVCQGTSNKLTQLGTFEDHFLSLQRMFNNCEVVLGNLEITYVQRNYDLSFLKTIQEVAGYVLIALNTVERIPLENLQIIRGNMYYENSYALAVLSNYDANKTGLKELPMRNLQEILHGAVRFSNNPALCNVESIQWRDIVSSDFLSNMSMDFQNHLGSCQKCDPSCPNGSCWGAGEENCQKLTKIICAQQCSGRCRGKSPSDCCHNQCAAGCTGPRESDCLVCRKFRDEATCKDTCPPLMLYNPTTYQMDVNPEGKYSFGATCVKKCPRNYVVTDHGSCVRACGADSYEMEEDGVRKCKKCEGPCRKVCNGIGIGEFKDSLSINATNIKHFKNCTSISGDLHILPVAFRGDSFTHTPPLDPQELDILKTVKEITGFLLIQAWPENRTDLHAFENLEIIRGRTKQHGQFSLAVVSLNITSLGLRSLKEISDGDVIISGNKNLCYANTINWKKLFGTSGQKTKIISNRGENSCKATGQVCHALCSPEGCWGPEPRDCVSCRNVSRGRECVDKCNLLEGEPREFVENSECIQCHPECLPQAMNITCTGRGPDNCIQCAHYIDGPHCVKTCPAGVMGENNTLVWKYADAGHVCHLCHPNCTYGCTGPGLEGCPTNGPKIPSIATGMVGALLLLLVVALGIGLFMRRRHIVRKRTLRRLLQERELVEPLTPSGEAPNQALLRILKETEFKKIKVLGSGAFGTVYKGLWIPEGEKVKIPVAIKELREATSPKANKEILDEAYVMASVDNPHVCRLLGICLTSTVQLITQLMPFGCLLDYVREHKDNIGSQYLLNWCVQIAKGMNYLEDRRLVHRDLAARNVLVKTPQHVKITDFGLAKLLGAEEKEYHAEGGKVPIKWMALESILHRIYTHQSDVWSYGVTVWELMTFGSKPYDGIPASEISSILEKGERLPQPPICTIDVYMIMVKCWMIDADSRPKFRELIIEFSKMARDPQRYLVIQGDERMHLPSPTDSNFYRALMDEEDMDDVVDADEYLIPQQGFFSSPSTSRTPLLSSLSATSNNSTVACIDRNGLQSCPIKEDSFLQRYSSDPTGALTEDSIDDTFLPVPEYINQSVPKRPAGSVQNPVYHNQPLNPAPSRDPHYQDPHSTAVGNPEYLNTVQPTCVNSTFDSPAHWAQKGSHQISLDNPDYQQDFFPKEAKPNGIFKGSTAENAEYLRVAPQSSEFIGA
Description: as §1

[6] = target: T3, JAK3 (Homo sapiens, UniProt P52333); assay: Inhibition of a panel of kinases, in vitro HotSpot kinase assay: JAK3; conditions: D-compounds panel data; 1 μM ATP; read-out: IC50 JAK3
T3 sequence (P52333 1-1124): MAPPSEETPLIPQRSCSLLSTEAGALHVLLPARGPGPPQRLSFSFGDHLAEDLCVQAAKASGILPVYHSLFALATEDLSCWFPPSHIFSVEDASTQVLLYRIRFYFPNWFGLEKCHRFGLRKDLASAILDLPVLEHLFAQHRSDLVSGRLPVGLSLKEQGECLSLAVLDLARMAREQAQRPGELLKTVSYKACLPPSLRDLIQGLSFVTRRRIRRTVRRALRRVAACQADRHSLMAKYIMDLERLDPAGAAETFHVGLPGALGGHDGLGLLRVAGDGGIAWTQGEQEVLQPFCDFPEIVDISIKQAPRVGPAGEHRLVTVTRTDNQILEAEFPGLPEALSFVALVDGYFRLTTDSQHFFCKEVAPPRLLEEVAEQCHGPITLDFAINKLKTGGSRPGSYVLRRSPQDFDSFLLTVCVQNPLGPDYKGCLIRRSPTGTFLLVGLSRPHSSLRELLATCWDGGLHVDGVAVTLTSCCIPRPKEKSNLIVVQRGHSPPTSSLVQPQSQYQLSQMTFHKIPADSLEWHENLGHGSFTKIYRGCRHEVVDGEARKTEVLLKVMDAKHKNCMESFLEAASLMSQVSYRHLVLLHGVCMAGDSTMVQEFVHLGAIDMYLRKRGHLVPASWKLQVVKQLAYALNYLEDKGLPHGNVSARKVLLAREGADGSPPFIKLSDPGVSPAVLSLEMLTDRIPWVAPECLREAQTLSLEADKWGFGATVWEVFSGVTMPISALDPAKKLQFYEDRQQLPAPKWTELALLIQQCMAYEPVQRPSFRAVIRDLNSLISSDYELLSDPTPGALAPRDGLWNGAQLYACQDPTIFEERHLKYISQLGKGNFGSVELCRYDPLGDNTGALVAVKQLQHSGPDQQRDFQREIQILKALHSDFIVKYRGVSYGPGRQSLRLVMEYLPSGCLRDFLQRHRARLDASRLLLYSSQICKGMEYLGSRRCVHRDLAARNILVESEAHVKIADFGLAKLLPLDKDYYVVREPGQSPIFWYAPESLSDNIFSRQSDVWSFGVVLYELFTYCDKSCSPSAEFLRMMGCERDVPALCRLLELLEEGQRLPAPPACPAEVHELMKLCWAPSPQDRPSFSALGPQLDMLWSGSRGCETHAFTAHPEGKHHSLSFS

Row | SMILES | IC50 [1] [µM] | IC50 [2] [µM] | IC50 [3] [µM] | IC50 [4] [µM] | IC50 [5] [µM] | IC50 [6] [µM]
1 | CN1CCN([C@@H]2CCCN(c3cnc(C(N)=O)c(Nc4cnn(C)c4)n3)C2)C1=O [Example D-209, 3-[(1-methyl-1H-pyrazol-4-yl)amino]-5-[(3R)-3-(3-methyl-2-oxoimidazolidin-1-yl)piperidin-1-yl]pyrazine-2-carboxamide] | 1 to 10 | 0.1 to 1 | 0.01 to 0.1 | 0.1 to 1 | > 10 | 1 to 10
2 | Cc1ncc(Nc2nc(N3CCC[C@@H](NC(=O)c4ccc(C5CC5)cc4)[C@H]3C)cnc2C(N)=O)s1 [Example D-210, 5-[(2R,3R)-3-(4-cyclopropylbenzamido)-2-methylpiperidin-1-yl]-3-[(2-methyl-1,3-thiazol-5-yl)amino]pyrazine-2-carboxamide] | 0.1 to 1 | 0.1 to 1 | ≤ 0.01 | 0.1 to 1 | 1 to 10 | 1 to 10
3 | C[C@@H]1[C@H](NC(=O)c2ccc(C3CC3)cc2)CCCN1c1cnc(C(N)=O)c(Nc2ccc(OC3CCN4CCCC4C3)cc2)n1 (stereo partly drawn) [Example D-211, 5-[(2R,3R)-3-(4-cyclopropylbenzamido)-2-methylpiperidin-1-yl]-3-{[4-(octahydroindolizin-7-yloxy)phenyl]amino}pyrazine-2-carboxamide] | 0.1 to 1 | 0.01 to 0.1 | ≤ 0.01 | 0.01 to 0.1 | 1 to 10 | 0.1 to 1
4 | C[C@@H]1[C@H](NC(=O)c2ccc(C3(O)CCCC3)cc2)CCCN1c1cnc(C(N)=O)c(Nc2cnn(C)c2)n1 [Example D-212, 5-[(2R,3R)-3-[4-(1-hydroxycyclopentyl)benzamido]-2-methylpiperidin-1-yl]-3-[(1-methyl-1H-pyrazol-4-yl)amino]pyrazine-2-carboxamide] | 0.1 to 1 | 0.1 to 1 | ≤ 0.01 | 0.01 to 0.1 | 1 to 10 | 0.1 to 1
5 | C[C@@H]1[C@H](NC(=O)c2ccc(C3CC3)cc2)CCCN1c1cnc(C(N)=O)c(Nc2cnn(CC(C)(C)O)c2)n1 [Example D-215, 5-[(2R,3R)-3-(4-cyclopropylbenzamido)-2-methylpiperidin-1-yl]-3-{[1-(2-hydroxy-2-methylpropyl)-1H-pyrazol-4-yl]amino}pyrazine-2-carboxamide] | 1 to 10 | 1 to 10 | 0.1 to 1 | 0.1 to 1 | > 10 | > 10
6 | C[C@@H]1[C@H](NC(=O)c2ccc3c(c2)OC(F)(F)O3)CCCN1c1cnc(C(N)=O)c(Nc2cnn(C)c2)n1 [Example D-216, 5-[(2R,3R)-3-(2,2-difluoro-2H-1,3-benzodioxole-5-amido)-2-methylpiperidin-1-yl]-3-[(1-methyl-1H-pyrazol-4-yl)amino]pyrazine-2-carboxamide] | 0.1 to 1 | 0.1 to 1 | ≤ 0.01 | 0.01 to 0.1 | 1 to 10 | 0.1 to 1
7 | C[C@@H]1[C@H](NC(=O)c2ccc(N(C)CCO)cc2)CCCN1c1cnc(C(N)=O)c(Nc2cnn(C)c2)n1 [Example D-217, 5-[(2R,3R)-3-{4-[(2-hydroxyethyl)(methyl)amino]benzamido}-2-methylpiperidin-1-yl]-3-[(1-methyl-1H-pyrazol-4-yl)amino]pyrazine-2-carboxamide] | 0.1 to 1 | 0.1 to 1 | ≤ 0.01 | 0.01 to 0.1 | 1 to 10 | 0.1 to 1
8 | CCN(CC)c1ccc(C(=O)N[C@@H]2CCCN(c3cnc(C(N)=O)c(Nc4cnn(C)c4)n3)[C@@H]2C)cc1 [Example D-218, 5-[(2R,3R)-3-[4-(diethylamino)benzamido]-2-methylpiperidin-1-yl]-3-[(1-methyl-1H-pyrazol-4-yl)amino]pyrazine-2-carboxamide] | 0.1 to 1 | 0.1 to 1 | ≤ 0.01 | 0.01 to 0.1 | 1 to 10 | 1 to 10
9 | C[C@@H]1[C@H](NC(=O)c2ccc(OC3CC3)cc2)CCCN1c1cnc(C(N)=O)c(Nc2cnn(C)c2)n1 [Example D-219, 5-[(2R,3R)-3-(4-cyclopropoxybenzamido)-2-methylpiperidin-1-yl]-3-[(1-methyl-1H-pyrazol-4-yl)amino]pyrazine-2-carboxamide] | 0.1 to 1 | 0.01 to 0.1 | ≤ 0.01 | 0.01 to 0.1 | 1 to 10 | 1 to 10
10 | CC(C)c1ccc(S(=O)(=O)N[C@@H]2CCCN(c3cnc(C(N)=O)c(Nc4cnn(C)c4)n3)[C@@H]2C)cc1 [Example D-220, 3-[(1-methyl-1H-pyrazol-4-yl)amino]-5-[(2R,3R)-2-methyl-3-[4-(propan-2-yl)benzenesulfonamido]piperidin-1-yl]pyrazine-2-carboxamide] | > 10 | > 10 | 1 to 10 | 1 to 10 | > 10 | 1 to 10
11 | C[C@@H]1[C@H](NC(=O)c2ccc(C3(C(F)(F)F)CC3)cc2)CCCN1c1cnc(C(N)=O)c(Nc2cnn(C)c2)n1 [Example D-221, 3-[(1-Methyl-1H-pyrazol-4-yl)amino]-5-[(2R,3R)-2-methyl-3-{4-[1-(trifluoromethyl)cyclopropyl]benzamido}piperidin-1-yl]pyrazine-2-carboxamide] | 1 to 10 | 0.1 to 1 | 0.01 to 0.1 | 0.1 to 1 | 1 to 10 | > 10
12 | CC(C)c1ccc(C(=O)N[C@@H]2CCCN(c3cnc(C(N)=O)c(Nc4cnn(C)c4)n3)C2)cc1 [Example D-222, 3-[(1-Methyl-1H-pyrazol-4-yl)amino]-5-[(3R)-3-[4-(propan-2-yl)benzamido]piperidin-1-yl]pyrazine-2-carboxamide] | > 10 | 1 to 10 | 0.01 to 0.1 | 1 to 10 | > 10 | > 10
